Experimental data as given in ChEMBL document CHEMBL1201862, “PubChem BioAssay data set” (2004).
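Five compound concentrations were applied to cells in 96-well plates for 48 hours; endpoints were derived by simple linear interpolation of the resulting dose-response curve. The concentration for 50% growth inhibition is given as GI50.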 Calls of active or inactive are those of the source. Cut-off read from the data, not from the text of the source: active = GI50 up to about 1.1 µM and inactive = higher.

Tests used:
Experiment in all cases: NCI tumour cell line growth inhibition, 48 h
[1] = system: NCI-H522
[2] = system: MDA-N
[3] = system: CCRF-CEM
[4] = system: NCI/ADR-RES
[5] = system: OVCAR-5
[6] = system: 786-0
[7] = system: MCF7
[8] = system: IGROV-1
[9] = system: SF-268
[10] = system: SR
[11] = system: LOX IMVI
[12] = system: U-251
[13] = system: OVCAR-3
[14] = system: EKVX
[15] = system: TK-10
[16] = system: CAKI-1
[17] = system: SNB-75
[18] = system: HCT-116
[19] = system: SF-539
[20] = system: RPMI-8226

SMILES	GI50 [1]	GI50 [2]	GI50 [3]	GI50 [4]	GI50 [5]	GI50 [6]	GI50 [7]	GI50 [8]	GI50 [9]	GI50 [10]	GI50 [11]	GI50 [12]	GI50 [13]	GI50 [14]	GI50 [15]	GI50 [16]	GI50 [17]	GI50 [18]	GI50 [19]	GI50 [20]
Cc1csc(NCc2ccc(Cl)cc2)n1	28.9 µM (inactive)	57.7 µM (inactive)	39.1 µM (inactive)	46.6 µM (inactive)	> 100 µM (inactive)	61.4 µM (inactive)	43.3 µM (inactive)	45.9 µM (inactive)	51.2 µM (inactive)	36.1 µM (inactive)	99.3 µM (inactive)	41.3 µM (inactive)	44.7 µM (inactive)	32.7 µM (inactive)	> 100 µM (inactive)	60.5 µM (inactive)	36.3 µM (inactive)	38.6 µM (inactive)	> 100 µM (inactive)	44 µM (inactive)
C#CCOC(=O)c1ccccc1OC(C)=O	> 100 µM (inactive)	> 100 µM (inactive)	> 100 µM (inactive)	> 100 µM (inactive)	> 100 µM (inactive)	> 100 µM (inactive)	> 100 µM (inactive)	> 100 µM (inactive)	> 100 µM (inactive)	> 100 µM (inactive)	> 100 µM (inactive)	> 100 µM (inactive)	–	> 100 µM (inactive)	> 100 µM (inactive)	> 100 µM (inactive)	> 100 µM (inactive)	> 100 µM (inactive)	> 100 µM (inactive)	> 100 µM (inactive)
O=C(NC(=O)c1ccccc1[N+](=O)[O-])Nc1ccc(Oc2ncc(Br)cn2)c(Cl)c1	0.0131 µM (active)	0.00857 µM (active)	0.0284 µM (active)	0.0198 µM (active)	0.0207 µM (active)	0.0215 µM (active)	0.0265 µM (active)	0.0258 µM (active)	0.0478 µM (active)	0.0296 µM (active)	0.0528 µM (active)	0.0427 µM (active)	0.0252 µM (active)	0.0348 µM (active)	0.0362 µM (active)	0.0194 µM (active)	0.0231 µM (active)	0.0255 µM (active)	0.0203 µM (active)	0.0256 µM (active)
Sc1nnc(SCc2ccccc2Cl)c2nc[nH]c12	> 100 µM (inactive)	> 100 µM (inactive)	> 100 µM (inactive)	> 100 µM (inactive)	> 100 µM (inactive)	> 100 µM (inactive)	> 100 µM (inactive)	> 100 µM (inactive)	> 100 µM (inactive)	> 100 µM (inactive)	> 100 µM (inactive)	> 100 µM (inactive)	> 100 µM (inactive)	74.8 µM (inactive)	> 100 µM (inactive)	> 100 µM (inactive)	> 100 µM (inactive)	> 100 µM (inactive)	> 100 µM (inactive)	> 100 µM (inactive)
O=C(/C=C/c1ccc(OCc2cccc(Cl)c2)cc1)NO	7.41 µM (inactive)	18.6 µM (inactive)	2.65 µM (inactive)	5.78 µM (inactive)	13.9 µM (inactive)	10.7 µM (inactive)	39.5 µM (inactive)	11.9 µM (inactive)	24.3 µM (inactive)	3.55 µM (inactive)	6.28 µM (inactive)	15 µM (inactive)	19.2 µM (inactive)	23.9 µM (inactive)	20.9 µM (inactive)	13.5 µM (inactive)	20.4 µM (inactive)	11.5 µM (inactive)	17.2 µM (inactive)	7.48 µM (inactive)
CC(=O)O[C@H]1CC[C@@]2(C)C(=CC[C@@H]3[C@@H]2CC[C@](C)(c2nnc(C)o2)[C@H]3CC#N)C1	> 100 µM (inactive)	> 100 µM (inactive)	> 100 µM (inactive)	> 100 µM (inactive)	> 100 µM (inactive)	> 100 µM (inactive)	> 100 µM (inactive)	> 100 µM (inactive)	> 100 µM (inactive)	> 100 µM (inactive)	> 100 µM (inactive)	> 100 µM (inactive)	> 100 µM (inactive)	> 100 µM (inactive)	> 100 µM (inactive)	> 100 µM (inactive)	51.6 µM (inactive)	> 100 µM (inactive)	> 100 µM (inactive)	> 100 µM (inactive)
CCNC(=O)c1c(O)nc2ccccc2c1O	69.2 µM (inactive)	84.9 µM (inactive)	52.2 µM (inactive)	> 100 µM (inactive)	42.4 µM (inactive)	67.3 µM (inactive)	51.8 µM (inactive)	39.4 µM (inactive)	63.4 µM (inactive)	25.5 µM (inactive)	51.5 µM (inactive)	29.5 µM (inactive)	61.9 µM (inactive)	32.3 µM (inactive)	50.6 µM (inactive)	55.5 µM (inactive)	> 100 µM (inactive)	51.1 µM (inactive)	> 100 µM (inactive)	17.6 µM (inactive)
COC12COC(=O)C1C(c1ccc3c(c1)OCO3)c1cc3c(cc1O2)OCO3 (stereo not drawn)	6.14 µM (inactive)	2.69 µM (inactive)	8.57 µM (inactive)	5.3 µM (inactive)	> 73.1 µM (inactive)	25.1 µM (inactive)	14.3 µM (inactive)	20.8 µM (inactive)	27.9 µM (inactive)	5.38 µM (inactive)	12.8 µM (inactive)	32 µM (inactive)	9.62 µM (inactive)	37.1 µM (inactive)	29.2 µM (inactive)	> 73.8 µM (inactive)	7.71 µM (inactive)	11.1 µM (inactive)	10.7 µM (inactive)	14.4 µM (inactive)
Cn1c(=O)cc(Nc2ccc(N)cc2)[nH]c1=O	> 100 µM (inactive)	> 100 µM (inactive)	> 100 µM (inactive)	> 100 µM (inactive)	> 100 µM (inactive)	> 100 µM (inactive)	49.4 µM (inactive)	> 100 µM (inactive)	> 100 µM (inactive)	> 100 µM (inactive)	> 100 µM (inactive)	> 100 µM (inactive)	> 100 µM (inactive)	> 100 µM (inactive)	> 100 µM (inactive)	> 100 µM (inactive)	> 100 µM (inactive)	> 100 µM (inactive)	> 100 µM (inactive)	> 100 µM (inactive)
CC1CC(c2ccccc2)Nc2nc3ccccc3n21 (stereo not drawn)	> 100 µM (inactive)	> 100 µM (inactive)	> 100 µM (inactive)	> 100 µM (inactive)	> 100 µM (inactive)	> 100 µM (inactive)	> 100 µM (inactive)	> 100 µM (inactive)	> 100 µM (inactive)	> 100 µM (inactive)	> 100 µM (inactive)	> 100 µM (inactive)	> 100 µM (inactive)	> 100 µM (inactive)	> 100 µM (inactive)	> 100 µM (inactive)	> 100 µM (inactive)	66.4 µM (inactive)	> 100 µM (inactive)	> 100 µM (inactive)
CC1/C=C/C=C/CC/C=C/C=C/C=C/C=C/C(OC2OC(C)C(O)C(N)C2O)CC2OC(CC(O)C(O)CCC(O)CC(O)CC(O)CC(=O)OC(C)C(C)C1O)CC(O)C2C(=O)O (stereo not drawn)	19.3 µM (inactive)	17.3 µM (inactive)	28.8 µM (inactive)	21.3 µM (inactive)	17.9 µM (inactive)	17 µM (inactive)	17.5 µM (inactive)	17.6 µM (inactive)	24.9 µM (inactive)	16.9 µM (inactive)	18.2 µM (inactive)	17.4 µM (inactive)	20 µM (inactive)	16.7 µM (inactive)	17.5 µM (inactive)	17.5 µM (inactive)	18.6 µM (inactive)	17.2 µM (inactive)	16.1 µM (inactive)	22.6 µM (inactive)
CCOC(=O)c1ccc(C(=O)/C(C(C)=O)=C2\CCCN2C)n1C	57.5 µM (inactive)	86.3 µM (inactive)	52.5 µM (inactive)	83.8 µM (inactive)	> 100 µM (inactive)	> 100 µM (inactive)	61.7 µM (inactive)	> 100 µM (inactive)	> 100 µM (inactive)	28.9 µM (inactive)	53.8 µM (inactive)	86.5 µM (inactive)	99.8 µM (inactive)	18.2 µM (inactive)	> 100 µM (inactive)	> 100 µM (inactive)	10.9 µM (inactive)	30.6 µM (inactive)	0.303 µM (active)	61.2 µM (inactive)
COc1ccc(NC(=O)N(C)CC2(O)CCC(C(C)(C)C)CC2)cc1 (stereo not drawn)	32.7 µM (inactive)	55.1 µM (inactive)	42.5 µM (inactive)	54.5 µM (inactive)	> 100 µM (inactive)	> 100 µM (inactive)	19.4 µM (inactive)	> 100 µM (inactive)	> 100 µM (inactive)	> 100 µM (inactive)	25.2 µM (inactive)	> 100 µM (inactive)	23 µM (inactive)	56.4 µM (inactive)	37 µM (inactive)	< 0.01 µM (active)	52.6 µM (inactive)	83.4 µM (inactive)	> 100 µM (inactive)	21 µM (inactive)
O=C(Nc1ccc2cc3ccccc3cc2c1)c1cc2c(cc1Cl)Sc1nccn1S2(=O)=O	33.7 µM (inactive)	44.4 µM (inactive)	–	> 100 µM (inactive)	21.7 µM (inactive)	4.73 µM (inactive)	> 100 µM (inactive)	15.9 µM (inactive)	15.3 µM (inactive)	35.2 µM (inactive)	16.8 µM (inactive)	5.48 µM (inactive)	> 100 µM (inactive)	35.6 µM (inactive)	16 µM (inactive)	> 100 µM (inactive)	13.3 µM (inactive)	3.85 µM (inactive)	7.8 µM (inactive)	> 100 µM (inactive)
